Data set [1] in a line: Pharmacokinetics in the rat, intravenous and oral. The class given is in vivo, Sprague Dawley rats. The procedure: Pharmacokinetics studies in the rat
DF2726A was administered to male Sprague Dawley rats (Charles River Srl. Calco Italy, 6-8 weeks old, n = 4/groups) intravenously (5 mg/kg, Dulbecco’s phosphate buffered saline) and orally (5 mg/kg Dulbecco’s phosphate buffered saline).
On day of treatment, an exact amount of DF2726A was dissolved in the appropriate volume of vehicle to obtain a final concentration of 2.0 mg/mL (IV) and 1 mg/mL (OS). Both of the formulations were filtered at 0.45 μm filter before use in animals.
After the administration of DF2726A, a 0.15-0.20 mL of blood was collected via jugular vein catheters with zero-dead volume disposable syringes (1 mL iv Insulin syringes with attached 25G […]
5/8 inch needles; Chemil s.r.l., Padova, Italy) at 0.08, 0.5, 1, 3, 6, 12, 24, 36 and 48 h for i.v. dosing and at 0.25, 0.5, 1, 3, 6, 12, 24, 36 and 48 h for oral dosing. After each blood withdrawal, the catheters were washed with 0.15-0.2 mL of sterile physiological saline and filled with 0.03 mL of heparin saline solution (0.25 U.I/mL). The heparinized blood was immediately centrifuged (8000 RPM for 5 min at approximately 4°C) and the resultant plasma transferred into vials and stored at - 20°C until analysis. DF2726A concentrations were quantified by HLPC-MS/MS using a chromatographic method with a lower limit of quantitation of 1 ng·mL -1. Non-compartmental analysis (Gibaldi and Perrier, 1982) were used to calculate the pharmacokinetic parameters using a MKModel by Nick Holford software Version 4, (Biosoft, Ferguson, MO 63 135, USA). […]

Data set [2] relates to paclitaxel-induced mechanical and cold allodynia. The experiment in a line: Paclitaxel-induced mechanical and cold allodynia. The class given is in vivo. As to conditions: 30 mg/kg os for 14 days, rats. The procedure: 5/8 inch needles; Chemil s.r.l., Padova, Italy) at 0.08, 0.5, 1, 3, 6, 12, 24, 36 and 48 h for i.v. dosing and at 0.25, 0.5, 1, 3, 6, 12, 24, 36 and 48 h for oral dosing. After each blood withdrawal, the catheters were washed with 0.15-0.2 mL of sterile physiological saline and filled with 0.03 mL of heparin saline solution (0.25 U.I/mL). The heparinized blood was immediately centrifuged (8000 RPM for 5 min at approximately 4°C) and the resultant plasma transferred into vials and stored at - 20°C until analysis. DF2726A concentrations were quantified by HLPC-MS/MS using a chromatographic method with a lower limit of quantitation of 1 ng·mL -1. Non-compartmental analysis (Gibaldi and Perrier, 1982) were used to calculate the pharmacokinetic parameters using a MKModel by Nick Holford software Version 4, (Biosoft, Ferguson, MO 63 135, USA).
DF2726A was administered at a dose of 30 mg/2ml/kg/os for 14 consecutive days starting 3 days before paclitaxel administration and continuing for 11 days after the first administration of […]
Induction of neuropathy by paclitaxel
Rats received 4 once daily intraperitoneal (i.p.) injections of paclitaxel (Tocris, Italy) (2 mg/kg/day i.p.; cumulative dose of 8 mg/kg i.p.) or vehicle (saline, 1ml/kg/day i.p.), administered on alternate days (days 0, 2, 4, and 6) as descr ibed 4. […]
Pac+Saline group. […] Data are expressed as […]

A further data set relates to COX2. Nature of the data set: COX2 protein western blotting in F11-derived neurons. The data set is classed as cell-based. As to conditions: DF2726A 1 µM + oxaliplatin 20 µM, 24 h. The procedure:
Following neuronal differentiation, neurons were treated for 24 h with DF2726A (1 μM final concentration), oxaliplatin (Sigma-Aldrich; 20 µM final concentration), or the combination of the two molecules.
Control and treated cells were collected and lysed in ice-cold RIPA buffer (PBS pH 7.4 containing 0.5% sodium deoxycolate, 1% Igepal, 0.1% SDS, 5 mM EDTA, 1% protease and phosphatase inhibitor cocktails; Sigma-Aldrich) as described in[22],[33]. Protein lysates (30 μg) were separated on 8–12% SDS-polyacrilamide gel and electroblotted onto polyvinyldifluoride membrane (PVDF; Sigma-Aldrich). Nonspecific binding sites were blocked by 5% non-fat dry milk (Bio-Rad Laboratories, Hercules, CA, USA) in Tris buffered saline (TBS: 20 mM Tris- HCl, pH 7.4, containing 150 mM NaCl) for 30 min at RT. […] The relative densities of immunoreactive bands were determined and normalized HRP-conjugated β-actin, using ImageJ software. […]
(In general: Immunoblotting shows a protein as a band on a membrane.)

Setting [3] is: single 5 mg/kg intravenous dose.

Molecules are shown by their SMILES.

On to `CC(C)(C(=O)O)c1ccc(Nc2nc(C(F)(F)F)cs2)cc1` [DF2726A], for which, in data set [1] (5 mg/kg oral dose), the “AUC0-last Oral” value came out at 136.3 ± 22.6 µg·h/mL, the “Cmax Oral” value turned out to be 6860 ± 1600 ng/mL, the “t1/2 Oral” value was found to be 16.2 ± 3.3 h and the “tmax Oral” value is 6.0 h. The “F (oral bioavailability)” value in data set [1] (5 mg/kg oral vs 5 mg/kg intravenous) came out at 96.8%. Further, in data set [1] (setting [3]), the “AUC0-last Intravenous” value amounted to 140.8 ± 24.9 µg·h/mL, the “CLtotal Intravenous” value is 0.62 ± 0.11 mL/min/kg, the “Vd Intravenous” value is on record as 0.52 ± 0.09 L/kg and the “t1/2 Intravenous” value was determined as 15.2 ± 3.8 h. For the same compound, in data set [2], the “Effect on paclitaxel-induced mechanical and cold allodynia” value is “prevented”. Moreover, the “COX2 expression levels, oxaliplatin-treated neurons” value in the data set on COX2 is given as “comparable to the control”.

For the origin of these results see article PMC6692352, “DF2726A, a new IL-8 signalling inhibitor, is able to counteract chemotherapy-induced neuropathic pain” (Scientific Reports, 2019).
